# Laboratory results reported in US7419788B2, “Method for screening anti-bacterial agents” (priority 2001, dated 2008).
# Target: T1, transpeptidase enzyme (PBP1b) (Escherichia coli, UniProt P02919)
# T1 construct: the ponB gene encoding PBP1b is overexpressed since the strain contains a plasmid comprising a further copy of ponB under the control of its native promoter; made in house; host or cells: Escherichia coli AMA1004 ΔponA; pBS96 (membranes solubilised with 1% CHAPS and 1M NaCl; supernatant used)
# Experiment: Scintillation proximity assay for formation of radiolabelled cross-linked peptidoglycan (transpeptidase inhibition)
# Format: biochemical
# Method: 4 mg of Escherichia coli AMA1004 cell membranes prepared as described in WO 99/60155 were incubated with 5 ml of 100 mM ampicillin in 50 mM Tris HCl buffer pH 7.5 and 0.1 mM MgCl2 for 30 minutes at room temperature. The membranes were sedimented by centrifugation at 150,000×g for 15 minutes and then washed three times. They were finally resuspended in 1 ml of 50 mM Tris HCl buffer and 0.1 mM MgCl2. […]
# The membranes of this E. coli strain were prepared as described in WO 99/60155. They were then treated with a detergent, 1% (3-[(3-cholamidopropyl)dimethylammonio]-1-propane-sulphonate (CHAPS), and 1M NaCl at a protein concentration of 5 mg/ml for 1 hour at room temperature. The mixture was then centrifuged at 150,000×g for 15 minutes in a Beckman table top ultracentrifuge and the supernatant containing PBP1b collected. The quantity of PBP1b protein used was the “soluble fraction” equivalent to 5 μg of starting membrane. […]
# The microtitre plate was left for 3 to 10 hours at room temperature before being counted in the “Microbeta Trilux” counter. […]
# Table 1 below enumerates the inhibitory effects of penicillin G on the transpeptidase enzyme (after subtracting the corresponding 0% reaction readings).
# T1 sequence (P02919 whole entry): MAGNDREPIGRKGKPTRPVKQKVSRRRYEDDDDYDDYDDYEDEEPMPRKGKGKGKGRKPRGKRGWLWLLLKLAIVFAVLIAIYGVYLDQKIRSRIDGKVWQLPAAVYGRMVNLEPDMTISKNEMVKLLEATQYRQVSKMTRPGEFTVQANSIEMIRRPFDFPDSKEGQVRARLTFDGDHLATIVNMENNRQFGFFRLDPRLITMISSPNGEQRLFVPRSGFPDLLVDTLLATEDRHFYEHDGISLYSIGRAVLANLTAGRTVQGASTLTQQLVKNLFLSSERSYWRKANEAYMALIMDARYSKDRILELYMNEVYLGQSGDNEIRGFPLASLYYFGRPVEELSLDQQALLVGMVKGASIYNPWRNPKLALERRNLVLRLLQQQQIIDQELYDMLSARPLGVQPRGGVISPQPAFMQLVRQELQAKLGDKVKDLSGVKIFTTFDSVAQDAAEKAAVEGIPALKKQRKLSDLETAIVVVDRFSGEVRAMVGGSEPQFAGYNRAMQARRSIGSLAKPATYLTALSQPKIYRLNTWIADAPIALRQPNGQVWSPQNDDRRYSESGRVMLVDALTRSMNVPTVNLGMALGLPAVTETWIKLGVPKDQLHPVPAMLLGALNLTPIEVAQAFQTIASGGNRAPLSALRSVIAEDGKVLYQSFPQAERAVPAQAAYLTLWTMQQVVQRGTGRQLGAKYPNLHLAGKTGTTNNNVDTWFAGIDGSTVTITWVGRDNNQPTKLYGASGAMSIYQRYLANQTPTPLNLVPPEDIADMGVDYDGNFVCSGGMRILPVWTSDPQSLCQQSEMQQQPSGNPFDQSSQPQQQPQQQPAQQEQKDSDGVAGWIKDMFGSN
smiles,measurement,setting,value
"CC1(C)S[C@@H]2[C@H](NC(=O)Cc3ccccc3)C(=O)N2[C@H]1C(=O)O [Penicillin G, penicillin G]",Counts per minute,"after subtracting the corresponding 0% reaction readings, PBP1b extract from E. coli AMA1004 ΔponA, pBS96, ampicillin-treated AMA1004 membranes, 37° C. for 15 minutes",319
same,% Inhibition,"inhibitory effect on the transpeptidase enzyme, relative to wells with no test compound (100% reaction controls), test concentration not given",94%
